# Source: patent US20080293727A1, “Novel sulfonamide inhibitors of aspartyl protease” (priority 1992, published 2008)
# pKi: −log10 of the molar value. Structures can show the parent of a compound that is named as a salt. Where two headings read alike, the source gives them in different places.
# Key:
# HIV-1 protease = HIV-1 protease (Human immunodeficiency virus type 1 group M subtype B, UniProt P04585); assay: Inhibition constants against HIV-1 protease (method of Pennington et al.); type: biochemical
# Excerpt: We measured the inhibition constants of the compounds listed in Table VII against HIV-1 protease using the above-cited method of Pennington et al.
# [1] = test system: HIVIIIb in CCRM-CEM cells; assay: Anti-viral potency in CCRM-CEM cells acutely infected with HIVIIIb, extracellular p24 antigen readout (method of Meek et al.); type: cell-based, HIV-1
# Method: Compounds of formula I were tested for their antiviral potency in several virological assays.
# The effect of the compounds on inhibiting the replication of the virus was measured by determining the HIV extracellular p24 antigen concentration using a commercial enzyme immunoassay (obtained from Coulter Corporation, Hialeah, Fla.).
# In Table VIII, the following classifications have been employed: • A: inhibits HIV replication at concentration of 100 nM or less. • B: inhibits HIV replication at concentration of between 101 and 1,000 nM. • C: inhibits HIV replication at a concentration of between 1,001 and 10,000 nM. • D: inhibits HIV replication at a concentration of between 10,001 and 40,000 nM. • ND: not tested.
# [2] = HIV-1 protease, read-out: Ki value
# [3] = Human immunodeficiency virus 1, read-out: IC90 Range
# [4] = CCRM-CEM cells, HIV replication, read-out: IC90 Range
# [5] = Human immunodeficiency virus 1, CCRM-CEM cells, HIV replication, read-out: IC90 Range
Structure (SMILES),pKi (HIV-1 protease; [2]),other results
"CCC(C)C(NC(=O)OCc1ccccc1)C(=O)NC(Cc1ccccc1)C(O)CN(CC(C)C)S(=O)(=O)c1ccc(F)c(NC(C)=O)c1 [Compound 187, Benzyloxycarbonyl-(L)-isoleucine-N-(5-((3-amino-(2 syn,3S)-2-hydroxy-4-phenyl-butyl)-isobutyl-sulfamoyl)-2-fluoro-phenyl)-acetamide]",9.52,"IC90 [1, 3]: 101 to 1000 nM"
CC(C)CN(C[C@@H](O)[C@H](Cc1ccccc1)NC(=O)O[C@H]1CCOC1)S(=O)(=O)c1ccc(O)c(N)c1 [Compound 1004],9.70,"IC90 [1, 3]: < 100 nM"
"CC(C)CN(CC(O)[C@H](Cc1ccccc1)NC(=O)O[C@H]1CCOC1)S(=O)(=O)c1cccnc1 (stereo partly drawn) [Compound 144, Pyridine-3-sulfonic acid ((2 syn,3S)-2-hydroxy-4-phenyl-3-((S)-tetrahydrofuran-3-yloxycarbonylamino)-butyl)-isobutyl-amide, trifluoroacetic acid salt]",8.10,"IC90 [1, 4]: 101 to 1000 nM"
"CC(C)CN(C[C@@H](O)[C@H](Cc1ccccc1)NC(=O)C(CC(N)=O)C(=O)OCc1ccccn1)S(=O)(=O)c1ccc(F)cc1 (stereo partly drawn) [Compound 26, N-1-(3-((4-Fluoro-benzenesulfonyl)-isobutyl-amino)-(1S,2 syn)-1-benzyl-2-hydroxy-propyl)-2-(pyridin-2-yl-methoxycarbonyl)-succinamide]",10.00,"IC90 [1, 4]: 101 to 1000 nM"
CCC(C)C(NC(=O)c1cnc2ccccc2n1)C(=O)NC(Cc1ccccc1)C(O)CN(CC(C)C)S(=O)(=O)c1ccc(F)c(NC(C)=O)c1 (centres unmarked) [Compound 188],7.94,"IC90 [1, 3]: 1000 to 10000 nM"
"CC(C)CN(CC(O)[C@H](Cc1ccccc1)NC(=O)O[C@@H]1CCOC1)S(=O)(=O)c1ccc(F)cc1 (stereo partly drawn) [Compound 52, 4-Fluoro-N-((2 syn,3S)-2-hydroxy-4-phenyl-3-((R)-tetrahydrofuran-3-yloxycarbonylamino)-butyl)-N-isobutyl-benzenesulfonamide and 4-Fluoro-N-((2 syn,3S)-2-hydroxy-4-phenyl-3-((R)-tetrahydrofuran-3-yloxycarbonylamino)-butyl)-N-isobutyl-benzenesulfonamide]",9.40,"IC90 [1, 4]: 101 to 1000 nM"
"CC(=O)Nc1ccc(S(=O)(=O)N(CC(C)C)CC(O)C(Cc2ccccc2)NC(=O)OC2CCOC2)cc1 [Compound 86, N-(4-(((2 syn,3S)-2-Hydroxy-4-phenyl-3-((R)-tetrahydrofuran-3-yloxycarbonylamino)-butyl)-isobutyl-sulfamoyl-phenyl)-acetamide and N-(4-(((2 syn,3S)-2-Hydroxy-4-phenyl-3-((S)-tetrahydrofuran-3-yloxycarbonylamino)-butyl)-isobutyl-sulfamoyl)-phenyl)-acetamide]",8.30,"IC90 [1, 3]: 101 to 1000 nM"
"CC(=O)Nc1ccc(S(=O)(=O)N(CC(C)C)CC(O)[C@H](Cc2ccccc2)NC(=O)C(CC(N)=O)C(=O)OCc2ccncc2)cc1 (stereo partly drawn) [Compound 23, N-1-(3-((4-Acetylamino-benzenesulfonyl)-isobutyl-amino)-(1S,2 syn)-1-benzyl-2-hydroxy-propyl)-2-(pyridin-4-yl-methoxycarbonyl)-succinamide]",8.82,"IC90 [1, 4]: 101 to 1000 nM"
CC(C)CN(C[C@@H](O)[C@H](Cc1ccccc1)NC(=O)OC(C)(C)C)S(=O)(=O)c1ccccc1F [Compound 47],8.40,"IC90 [1, 3]: 1000 to 10000 nM"
"CC(C)CN(C[C@@H](O)[C@H](Cc1ccccc1)NC(=O)O[C@H]1CCOC1)S(=O)(=O)c1ccc(N)cc1 [Compound 168, 4-Amino-N-((2 syn,3S)-2-Hydroxy-4-phenyl-3-((S)-tetrahydrofuran-3-yloxycarbonylamino)-butyl)-N-isobutyl-benzenesulfonamide]",–,"IC90 [1, 5]: < 100 nM"
"CC(C)CN(CC(O)[C@H](Cc1ccccc1)NC(=O)[C@H](CC(N)=O)NC(=O)c1ccc2ccccc2n1)S(=O)(=O)c1ccc(-c2ccccn2)s1 (stereo partly drawn) [Compound 12, (S)-N-1-(1-(S)-Benzyl-2-(syn)-hydroxyl-3-(isobutyl-(5-pyridin-2-yl-thiophene-2-sulfonyl)-amino)-propyl)-2-((quinoline-2-carbonyl)-amino)-succinamide]",10.00,"IC90 [1, 4]: < 100 nM"
CC(C)CN(CC(O)C(Cc1ccccc1)NC(=O)OCC1CCOC1)S(=O)(=O)c1ccc(Cl)c(Cl)c1 (centres unmarked) [Compound 85],8.40,"IC90 [1, 3]: 1000 to 10000 nM"
Nc1ccc(S(=O)(=O)N(CC2CCCC2)C[C@@H](O)[C@H](Cc2ccccc2)NC(=O)O[C@H]2CCOC2)cc1N [Compound 1015],–,"pKi (HIV-1 protease): 7.72; IC90 [1, 5]: < 100 nM"
COCCOC(=O)N[C@@H](Cc1ccccc1)[C@H](O)CN(CC(C)C)S(=O)(=O)c1ccc(NC(C)=O)cc1 [Compound 34],7.77,–
CC(C)CN(C[C@@H](O)[C@H](Cc1ccccc1)NC(=O)O[C@H]1CCOC1)S(=O)(=O)c1ccc2nonc2c1 [Compound 66],9.40,–
N#Cc1ccc(S(=O)(=O)N(CC2CCCC2)C[C@@H](O)[C@H](Cc2ccccc2)NC(=O)O[C@H]2CCOC2)cc1 [Compound 181],9.52,–
CC(C)CN(C[C@@H](O)[C@H](Cc1ccccc1)NC(=O)[C@@H](NC(=O)OCc1cccnc1)C(C)C)S(=O)(=O)c1cccc2nonc12 [Compound 25],5.52,–
CC(C)CN(C[C@@H](O)[C@H](Cc1ccccc1)NC(=O)O[C@H]1CCOC1)S(=O)(=O)c1ccc(O)cc1 [Compound 175],10.00,–
"CC(=O)N1CCc2ccc(S(=O)(=O)N(CC3CCCC3)CC(O)[C@H](Cc3ccccc3)NC(=O)O[C@H]3CCOC3)cc21 (stereo partly drawn) [Compound 157, 1-Acetyl-2,3-dihydro-1H-indole-6-sulfonic acid cyclopentylmethyl-((2 syn, 3S)-2-hydroxy-4-phenyl-3-((S)-tetrahydrofuran-3-yloxycarbonylamino)-butyl)-amide]",9.15,"IC90 [1, 4]: 101 to 1000 nM"
COc1ccc(OC)c(S(=O)(=O)N[C@@H](Cc2ccccc2)[C@H](O)CN(CC(C)C)S(=O)(=O)c2ccc(F)c(NC(C)=O)c2)c1 [Compound 73],6.85,–
C=C(C)CN(C[C@@H](O)[C@H](Cc1ccccc1)NC(=O)O[C@H]1CCOC1)S(=O)(=O)c1ccc(NC(C)=O)cc1 [Compound 134],8.08,–
CC(C)(C)OC(=O)NC(Cc1ccccc1)C(O)CN(CC1CCCO1)S(=O)(=O)c1ccc(F)cc1 (centres unmarked) [Compound 129],7.72,–
